Measured values reported in patent publication US20180136241A1, “METHOD FOR EXAMINING FOOD ALLERGY AND EXAMINATION KIT” (The University of Tokyo, priority 2014, published 2018).

What was measured:
[1] = cited from earlier work
[2] = tested on: food allergy symptoms induced by OVA; experiment: Frequency of diarrhea in OVA-induced food allergy model mouse; format: in vivo; conditions: BALB/c mice sensitized with OVA, drug i.p. every day during OVA oral administration period; cromolyn 300 μg/mouse, DEX 2 mg/kg; n=5
Method: (§1) Model preparation: Wild type BALB/c mice (6-8 weeks old, female) were intraperitoneally sensitized with OVA by administering OVA (50 μg) twice at intervals of two weeks. Two weeks later, OVA (10 mg) was orally administered 10 times in total at intervals of two days. As a control, the mice sensitized with OVA was orally administered with physiological saline 10 times in total at intervals of two days.
Medication treatment: During the period of orally administering OVA to the mice sensitized with OVA in accordance with the aforementioned method, dexamethasone (2 mg/kg) or sodium cromoglycate (300 μg/mouse) were intraperitoneally administered every day.
Symptom evaluation: The number of mice which developed diarrhea within one hour after the OVA administration is determined in percentage.

[3] = tested on: tetranor-PGDM amount excreted in the urine; experiment: Urinary tetranor-PGDM by HPLC-MS/MS in OVA-induced food allergy model mouse; format: in vivo; conditions: BALB/c mice sensitized with OVA, drug i.p. every day during OVA oral administration period; cromolyn 300 μg/mouse, DEX 2 mg/kg; n=5
Method: as §1
Medication treatment: During the period of orally administering OVA to the mice sensitized with OVA in accordance with the aforementioned method, dexamethasone (2 mg/kg) or sodium cromoglycate (300 μg/mouse) were intraperitoneally administered every day. […]
Using the urine sample pretreated, tetranor-PGDM and tetranor-PGEM were measured by a high performance liquid chromatography tandem mass spectrometer (HPLC-MS/MS). […] As a quantitative method, MRM (Multiple Reaction Monitoring) method was employed. Tetranor-PGDM (mass number 328) and tetranor-PGEM (mass number 328) were detected by using product ion m/z 309, which was produced by further decomposing the produced precursor ion m/z (mass number÷charge) 327 by collision induced dissociation (CID). Internal standards, tetranor-PGDM-d6 (mass number 334) and tetranor-PGEM-d6 (mass number 334), were detected by using product ion m/z 315, which was produced by further decomposing precursor ion m/z (mass number÷charge) 333 by CID. […]

[4] = cited from earlier work; remark: listed apart in the source

For `CCCCC[C@H](O)/C=C/[C@H]1C(=O)C[C@H](O)[C@@H]1C/C=C\CCCC(=O)O` [PGD2, prostaglandin D2], the “time in which PGD2 is metabolized in vivo” value [1] is given as 50 s.
With `O=C(O)c1cc(=O)c2c(OCC(O)COc3cccc4oc(C(=O)O)cc(=O)c34)cccc2o1` [cromolyn, sodium cromoglycate] the “food allergy symptoms induced by OVA (frequency of diarrhea)” value [2] was “suppressed food allergy symptoms” and the “tetranor-PGDM amount excreted in the urine” value [3] was “significantly decreased”.
For `NCCc1c[nH]cn1` [histamine], the “time in which histamine in the blood disappears” value [4] is listed as 15 min.
